# ± gives the uncertainty stated by the source.
# Experiment: xn = mol fraction of the nth substance listed
smiles,measurement,setting,value
CCn1cc[nH+]c1.O=S(=O)([N-]S(=O)(=O)C(F)(F)F)C(F)(F)F + O,viscosity,"297.55 K, 101 kPa, x1 = 0.5",15.8 ± 0.5 mPa·s
same,viscosity,"297.55 K, 101 kPa, x1 = 0.889",44.9 ± 1.5 mPa·s
same,electrical conductivity,"303.15 K, 100 kPa, x1 = 0.366",1.77 ± 0.11 S/m
same,electrical conductivity,"303.15 K, 100 kPa, x1 = 0.403",1.6 ± 0.096 S/m
same,electrical conductivity,"303.15 K, 100 kPa, x1 = 0.427",1.53 ± 0.092 S/m
same,electrical conductivity,"303.15 K, 100 kPa, x1 = 0.455",1.44 ± 0.086 S/m
same,electrical conductivity,"303.15 K, 100 kPa, x1 = 0.491",1.35 ± 0.081 S/m
same,electrical conductivity,"303.15 K, 100 kPa, x1 = 0.519",1.24 ± 0.075 S/m
same,electrical conductivity,"303.15 K, 100 kPa, x1 = 0.554",1.15 ± 0.069 S/m
same,electrical conductivity,"303.15 K, 100 kPa, x1 = 0.592",1.05 ± 0.063 S/m
same,electrical conductivity,"303.15 K, 100 kPa, x1 = 0.634",0.948 ± 0.057 S/m
same,electrical conductivity,"303.15 K, 100 kPa, x1 = 0.684",0.845 ± 0.051 S/m
same,electrical conductivity,"303.15 K, 100 kPa, x1 = 0.712",0.785 ± 0.047 S/m
same,electrical conductivity,"303.15 K, 100 kPa, x1 = 0.743",0.729 ± 0.044 S/m
same,electrical conductivity,"303.15 K, 100 kPa, x1 = 0.776",0.672 ± 0.04 S/m
same,electrical conductivity,"303.15 K, 100 kPa, x1 = 0.811",0.619 ± 0.037 S/m
same,electrical conductivity,"303.15 K, 100 kPa, x1 = 0.851",0.57 ± 0.034 S/m
same,electrical conductivity,"303.15 K, 100 kPa, x1 = 0.896",0.516 ± 0.031 S/m
same,electrical conductivity,"303.15 K, 100 kPa, x1 = 0.943",0.464 ± 0.028 S/m
same,electrical conductivity,"303.15 K, 100 kPa, x2 = 0.003",0.424 ± 0.025 S/m
O=S(=O)([N-]S(=O)(=O)C(F)(F)F)C(F)(F)F.[Li+] + O,electrical conductivity,"267.18 K, 100 kPa, x2 = 0.8271",1.02 ± 0.02 S/m
same,electrical conductivity,"272.15 K, 100 kPa, x2 = 0.8855",2.04 ± 0.041 S/m
same,electrical conductivity,"282.32 K, 100 kPa, x2 = 0.7538",0.699 ± 0.014 S/m
same,electrical conductivity,"283 K, 101 kPa, x1 = 0.2649",0.62 ± 0.01 S/m
same,electrical conductivity,"288.36 K, 100 kPa, x2 = 0.7538",0.861 ± 0.017 S/m
same,electrical conductivity,"292.1 K, 100 kPa, x1 = 0.0039",0.966 ± 0.019 S/m
same,electrical conductivity,"292.3 K, 100 kPa, x2 = 0.8065",1.98 ± 0.04 S/m
same,viscosity,"293 K, 100 kPa, x1 = 0.25",23.6 ± 0.9 mPa·s
same,electrical conductivity,"293 K, 101 kPa, x1 = 0.2649",0.89 ± 0.02 S/m
same,viscosity,"293 K, 101 kPa, x1 = 0.2649",69.2 ± 2.2 mPa·s
same,electrical conductivity,"296.88 K, 100 kPa, x2 = 0.8271",2.71 ± 0.054 S/m
same,electrical conductivity,"298 K, 101 kPa, x1 = 0.005377",1.2 ± 0.02 S/m
same,viscosity,"298 K, 101 kPa, x1 = 0.005377",1.11 ± 0.02 mPa·s
same,electrical conductivity,"298 K, 101 kPa, x1 = 0.05933",5.79 ± 0.12 S/m
same,viscosity,"298 K, 101 kPa, x1 = 0.05933",3.11 ± 0.08 mPa·s
same,viscosity,"298 K, 101 kPa, x1 = 0.112",5.56 ± 0.16 mPa·s
same,electrical conductivity,"298 K, 101 kPa, x1 = 0.1134",4.7 ± 0.09 S/m
same,electrical conductivity,"298 K, 101 kPa, x1 = 0.1778",2.99 ± 0.06 S/m
same,electrical conductivity,"298 K, 101 kPa, x1 = 0.2128",2.2 ± 0.04 S/m
same,viscosity,"298 K, 101 kPa, x1 = 0.2128",22.22 ± 0.73 mPa·s
same,electrical conductivity,"298 K, 101 kPa, x1 = 0.2639",0.97 ± 0.02 S/m
same,viscosity,"298 K, 101 kPa, x1 = 0.2649",51.3 ± 1.9 mPa·s
same,electrical conductivity,"298.1 K, 101 kPa, x1 = 0.2649",1.04 ± 0.02 S/m
same,viscosity,"298.1 K, 101 kPa, x1 = 0.2649",55.3 ± 1.2 mPa·s
same,viscosity,"298.15 K, 100 kPa, x1 = 0.112",5.2 ± 0.4 mPa·s
same,viscosity,"298.15 K, 100 kPa, x1 = 0.1896",15.8 ± 1.3 mPa·s
same,viscosity,"298.15 K, 100 kPa, x1 = 0.2333",30.7 ± 2.5 mPa·s
same,viscosity,"298.15 K, 100 kPa, x1 = 0.2547",42.3 ± 3.4 mPa·s
same,viscosity,"298.15 K, 100 kPa, x1 = 0.2741",54.1 ± 4.3 mPa·s
same,electrical conductivity,"301.65 K, 100 kPa, x2 = 0.8271",3.13 ± 0.063 S/m
same,electrical conductivity,"302.07 K, 100 kPa, x2 = 0.7538",1.38 ± 0.028 S/m
same,electrical conductivity,"302.07 K, 100 kPa, x2 = 0.9148",5.85 ± 0.12 S/m
same,electrical conductivity,"302.88 K, 100 kPa, x2 = 0.8495",4.06 ± 0.081 S/m
same,electrical conductivity,"303 K, 101 kPa, x1 = 0.2649",1.22 ± 0.03 S/m
same,viscosity,"303 K, 101 kPa, x1 = 0.2649",45.4 ± 1 mPa·s
same,electrical conductivity,"307.05 K, 100 kPa, x2 = 0.8065",2.85 ± 0.057 S/m
same,electrical conductivity,"307.24 K, 100 kPa, x2 = 0.9761",4.9 ± 0.098 S/m
same,electrical conductivity,"308.08 K, 100 kPa, x2 = 0.7538",1.61 ± 0.032 S/m
same,viscosity,"308.15 K, 100 kPa, x1 = 0.112",4.3 ± 0.3 mPa·s
same,viscosity,"308.15 K, 100 kPa, x1 = 0.1896",11.5 ± 0.9 mPa·s
same,viscosity,"308.15 K, 100 kPa, x1 = 0.2333",21.5 ± 1.7 mPa·s
same,viscosity,"308.15 K, 100 kPa, x1 = 0.2547",29 ± 2.3 mPa·s
same,viscosity,"308.15 K, 100 kPa, x1 = 0.2741",36.1 ± 2.9 mPa·s
same,electrical conductivity,"312.24 K, 100 kPa, x2 = 0.8065",3.3 ± 0.066 S/m
same,electrical conductivity,"312.86 K, 100 kPa, x2 = 0.6988",0.916 ± 0.018 S/m
same,electrical conductivity,"313 K, 101 kPa, x1 = 0.2649",1.6 ± 0.03 S/m
same,viscosity,"313 K, 101 kPa, x1 = 0.2649",30.9 ± 0.7 mPa·s
same,electrical conductivity,"315.76 K, 100 kPa, x2 = 0.7857",2.85 ± 0.057 S/m
same,electrical conductivity,"317.41 K, 100 kPa, x2 = 0.8271",4.37 ± 0.087 S/m
same,electrical conductivity,"317.41 K, 100 kPa, x2 = 0.8495",5.49 ± 0.11 S/m
same,viscosity,"318.15 K, 100 kPa, x1 = 0.112",3.4 ± 0.3 mPa·s
same,viscosity,"318.15 K, 100 kPa, x1 = 0.1896",8.6 ± 0.7 mPa·s
same,viscosity,"318.15 K, 100 kPa, x1 = 0.2333",15.8 ± 1.3 mPa·s
same,viscosity,"318.15 K, 100 kPa, x1 = 0.2547",20.9 ± 1.7 mPa·s
same,viscosity,"318.15 K, 100 kPa, x1 = 0.2741",25.5 ± 2 mPa·s
same,electrical conductivity,"318.47 K, 100 kPa, x2 = 0.6988",1.07 ± 0.021 S/m
same,electrical conductivity,"320.96 K, 100 kPa, x2 = 0.7857",3.2 ± 0.064 S/m
same,electrical conductivity,"321.15 K, 100 kPa, x2 = 0.9761",6.42 ± 0.13 S/m
same,electrical conductivity,"322.41 K, 100 kPa, x2 = 0.7538",2.29 ± 0.046 S/m
same,electrical conductivity,"323 K, 101 kPa, x1 = 0.2649",2.04 ± 0.04 S/m
same,viscosity,"323 K, 101 kPa, x1 = 0.2649",21.8 ± 0.5 mPa·s
same,electrical conductivity,"327.61 K, 100 kPa, x2 = 0.8271",5.33 ± 0.11 S/m
same,electrical conductivity,"327.8 K, 100 kPa, x2 = 0.6988",1.36 ± 0.027 S/m
same,viscosity,"328.15 K, 100 kPa, x1 = 0.112",2.8 ± 0.2 mPa·s
same,viscosity,"328.15 K, 100 kPa, x1 = 0.1896",6.6 ± 0.5 mPa·s
same,viscosity,"328.15 K, 100 kPa, x1 = 0.2333",12 ± 1 mPa·s
same,viscosity,"328.15 K, 100 kPa, x1 = 0.2547",15.6 ± 1.3 mPa·s
same,viscosity,"328.15 K, 100 kPa, x1 = 0.2741",18.7 ± 1.5 mPa·s
same,electrical conductivity,"329.06 K, 100 kPa, x2 = 0.7857",3.73 ± 0.075 S/m
same,electrical conductivity,"331.74 K, 100 kPa, x2 = 0.8271",5.85 ± 0.12 S/m
same,electrical conductivity,"331.96 K, 100 kPa, x2 = 0.8065",4.85 ± 0.097 S/m
same,electrical conductivity,"332.16 K, 100 kPa, x2 = 0.8855",8.87 ± 0.18 S/m
same,electrical conductivity,"332.58 K, 100 kPa, x2 = 0.9148",10.1 ± 0.2 S/m
same,electrical conductivity,"333 K, 100 kPa, x2 = 0.7538",2.85 ± 0.057 S/m
same,electrical conductivity,"333 K, 100 kPa, x2 = 0.8495",7.06 ± 0.14 S/m
same,electrical conductivity,"333 K, 101 kPa, x1 = 0.2649",2.58 ± 0.05 S/m
same,viscosity,"333 K, 101 kPa, x1 = 0.2649",16.2 ± 0.4 mPa·s
same,electrical conductivity,"334.65 K, 100 kPa, x2 = 0.7857",4.15 ± 0.083 S/m
same,electrical conductivity,"336.52 K, 100 kPa, x2 = 0.8855",9.74 ± 0.2 S/m
same,electrical conductivity,"339.84 K, 100 kPa, x2 = 0.7857",4.6 ± 0.092 S/m
same,electrical conductivity,"341.52 K, 100 kPa, x2 = 0.8271",6.77 ± 0.14 S/m
same,electrical conductivity,"341.94 K, 100 kPa, x1 = 0.0039",2.36 ± 0.047 S/m
same,electrical conductivity,"342.13 K, 100 kPa, x2 = 0.6601",1.19 ± 0.024 S/m
same,electrical conductivity,"342.75 K, 100 kPa, x2 = 0.8065",5.73 ± 0.12 S/m
same,electrical conductivity,"343.17 K, 100 kPa, x2 = 0.7538",3.44 ± 0.069 S/m
same,electrical conductivity,"347.11 K, 100 kPa, x1 = 0.0039",2.52 ± 0.05 S/m
same,electrical conductivity,"347.33 K, 100 kPa, x2 = 0.6988",2.11 ± 0.042 S/m
same,electrical conductivity,"347.53 K, 100 kPa, x2 = 0.9761",9.34 ± 0.19 S/m
same,electrical conductivity,"347.94 K, 100 kPa, x2 = 0.8495",8.69 ± 0.17 S/m
same,electrical conductivity,"352.3 K, 100 kPa, x2 = 0.8855",11.8 ± 0.23 S/m
same,electrical conductivity,"352.92 K, 100 kPa, x2 = 0.8065",6.69 ± 0.13 S/m
same,electrical conductivity,"356.24 K, 100 kPa, x2 = 0.7857",5.78 ± 0.12 S/m
same,electrical conductivity,"357.3 K, 100 kPa, x2 = 0.8855",12.1 ± 0.24 S/m
same,electrical conductivity,"357.7 K, 100 kPa, x2 = 0.9148",13.9 ± 0.28 S/m

# — the CheMixHub ionic liquid set
